Consider two sequences from patent publication US20240342242A1, “COMPOSITIONS AND METHODS FOR TREATING MASTITIS” (Zoetis Services LLC, priority 2021, published 2024).

The test has as its system Escherichia coli. The experiment in a line: E. coli intramammary challenge in lactating dairy cows, CATH2 and analogs, Example 2. To be noted: for overall protection against mastitis following IMM challenge with E. coli / intramammary infection observed / animals meeting criteria for clinical mastitis: 50 mg/10 mL; for intramammary infection observed: 4 treatments prior to challenge, vehicle 100%; for animals meeting criteria for clinical mastitis: 4 treatments twice daily for 2 days prior to challenge, vehicle 100.0%, FIG. 9; for milk concentrations of BSA, milk haptoglobin, milk amyloid A, IL-1 beta, IL-6, IL-8, IL-10 and TNFα: FIGS. 13-20. The test is classed as in vivo, Holstein cows. The text has this: The objective of this study was to evaluate the efficacy of Cathelicidin-2 peptide analogs for reduction of incidence of clinical mastitis and severity of infection following Escherichia coli intramammary (IMM) infusion in lactating dairy cows. Healthy Holstein cows in their second or third lactation were selected based on culture negative results for mastitis pathogens and low somatic cell counts≤200,000. Enrolled animals were randomly assigned to treatment. Cows were commingled, housed and fed according to standard site procedures, and fitted with sensors to monitor activity. Cows were milked twice daily at regular intervals. The assigned treatment was administered following am and pm milkings starting 2 days prior to challenge. Four total treatments and the challenge were administered in the left front quarter. Treatment was administered twice daily for 2 days prior to challenge. The E. coli challenge material was administered to the treated quarter on the morning of Day 0 of study. The treatment regimen was designed to evaluate efficacy for prevention of the disease. All peptides were dosed at 50 mg/10 mL per dose. Milk samples were collected for analysis at 6-hour intervals on Day 0, and at each morning's milking from Day 1 through Day 7, and on Days 11 and 14.

On to “RFGRWLRKIRRYRGKVTITIQ [Analog 1, CATH2 1-21 analog]”, for which the “overall protection against mastitis following IMM challenge with E. coli” value is reported as “Relatively limited protection against mastitis”; the intramammary infection observed came out at 94.74%; the “animals meeting criteria for clinical mastitis” value is given as 78.95%; the “milk concentrations of BSA, milk haptoglobin, milk amyloid A, IL-1 beta, IL-6, IL-8, IL-10 and TNFα” value is “modulation on acute phase proteins and key cytokines”.
“RCGRFLRKIRPFRRKVTITCQ [Analog 2, CATH2 1-21 analog]”: the “overall protection against mastitis following IMM challenge with E. coli” value was “Relatively limited protection against mastitis”; the intramammary infection observed is reported as 94.74%; the “animals meeting criteria for clinical mastitis” value came to 95.74%; the “milk concentrations of BSA, milk haptoglobin, milk amyloid A, IL-1 beta, IL-6, IL-8, IL-10 and TNFα” value is “modulation on acute phase proteins and key cytokines”.
